Experimental data published in publication PMC5515859, “Metabolism of F18, a Derivative of Calanolide A, in Human Liver Microsomes and Cytosol” (Frontiers in Pharmacology, 2017).
Where two headings read alike, the source gives them in different places.

How the values were obtained:
CYP2C8 = test system: CYP2C8; parameters: method as in FDA Drug Development and Drug Interactions; conditions: ref FDA Drug Development and Drug Interactions, cited from earlier work; for Ki: read-out: inhibitor Ki, CYP2C8
[1] = test system: carbonyl reductases in HLcy; assay: Inhibition of carbonyl reduction of F18 (formation of M3-1 and M3-2) by chemical inhibitors in HLcy; type: in vitro ADME, human; conditions: F18 10 μM, 10 min
Experimental: F18 (10 μM) was incubated with HLMs (0.5 mg/mL) and the NADPH-generating system for 30 min or with HLcy and a cofactor (NADPH or NADH) for 10 min in the presence of chemical inhibitors under the above-described conditions. Control incubations using the vehicles but not the chemical inhibitors were also performed. The formation of M3-1 and M3-2 was quantified by LC-MS/MS.
The amounts of F18, M1, M2-9, M3-1, M3-2, M5-2, M5-3, M5-4, and M5-5 in the incubations were simultaneously quantified with the LC-MS/MS system. […] The sheath gas, auxiliary gas, spray voltage and tube lens parameters were the same as those for the metabolic profiling studies.

human liver microsomes = assay: Incubation of F18 with human liver microsomes, metabolite profiling by LC-MS/MS; type: in vitro ADME; parameters: key: +: Metabolite detected; −: metabolite not detected; conditions: F18 50 μM, 1 h
Experimental: (§1) A stock solution of F18 (5 mM) was prepared in methanol. F18 (50 μM) was incubated with RLMs/DLMs/MLMs/HLMs and HLcy (0.5 mg protein/mL) in 50 mM Tris-HCl buffer containing 5 mM MgCl2 (pH 7.4) in a final volume of 200 μL. The final concentration of methanol in the incubation system was 1% (v/v). After 3 min of preincubation at 37°C, the reactions were initiated by the addition of NADPH-regenerating system (10-mM β-NADP, 100-mM 6-G-P and 10-U/mL 6-G-P-DH) or NADH. After incubation for 1 h, the reactions were terminated by the addition of two volumes of ice-cold acetonitrile. Samples without NADPH or NADH were included as controls. The incubation mixture was vortexed and centrifuged at 13,300 × g for 5 min. A 10 μL aliquot of the supernatant was injected into an LC-tandem mass spectrometer (LC-MS/MS) for analysis.
(§2) Metabolic profiling studies were performed with a Finnigan TSQ Quantum MS instrument with an electrospray ionization probe and a Finnigan SURVEYOR HPLC system (Thermo Finnigan, San Jose, CA, USA). HPLC was performed with a Zorbax SB-C18 column (2.1 × 100 mm, 3.5 μm, Agilent Corporation, CA, USA) with a column temperature of 35°C and a flow rate of 200 μL/min. F18 and its metabolites were eluted using a linear gradient method with a mobile phase consisting of solvent A (water with 0.1% formic acid) and solvent B (acetonitrile with 0.1% formic acid). […] The samples were analyzed in the positive-ionization mode, and the TSQ capillary temperature was set to 350°C. Nitrogen was used as both the sheath gas and the auxiliary gas and was delivered at 30 psi and 15 psi, respectively. The spray voltage and tube lens were set to 3,800 V and 123 V, respectively. The full-width half maximum (FWHM) was set to 0.7. MS data were acquired in the selective ion-recording mode or by collecting full scans from 200 to 600 m/z at 1 scan/s. The mass spectrometer and HPLC system were operated using Xcalibur 2.0.7 software.

rat liver microsomes = assay: Incubation of F18 with rat liver microsomes, metabolite profiling; type: in vitro ADME; parameters: key: +: Metabolite detected; −: metabolite not detected; conditions: F18 50 μM, 1 h
Experimental: as §1, §2

dog liver microsomes = assay: Incubation of F18 with dog liver microsomes, metabolite profiling; type: in vitro ADME, beagle dog; parameters: key: +: Metabolite detected; −: metabolite not detected; conditions: F18 50 μM, 1 h
Experimental: as §1, §2

monkey liver microsomes = assay: Incubation of F18 with monkey liver microsomes, metabolite profiling; type: in vitro ADME; parameters: key: +: Metabolite detected; −: metabolite not detected; conditions: F18 50 μM, 1 h
Experimental: as §1, §2

human liver cytosol = assay: Incubation of F18 with human liver cytosol, metabolite profiling; type: in vitro ADME; parameters: key: +: Metabolite detected; −: metabolite not detected; conditions: F18 50 μM, 1 h
Experimental: as §1, §2

CYP2B6 = conditions: cited from earlier work
CYP2A6 = conditions: cited from earlier work
CYP2C9 = conditions: cited from earlier work
VSV-G/HIV-1 viruses = assay: microbe, parasite or virus in culture; type: cell-based; conditions: Human immunodeficiency virus 1, HEK-293T, 48 h, read-out: IC50, inhibition of HIV-1 replication
[2] = HLcy, cofactor not given, high concentration 50 μM
[3] = HLcy, cofactor not given, low concentration 10 μM
[4] = read-out: inhibitor Ki, CYP2B6, ref FDA Drug Development and Drug Interactions
[5] = HLcy with NADH, high concentration: dicumarol 50 μM, 4-methylpyrazole 500 μM
[6] = HLcy with NADH, low concentration: dicumarol 10 μM, 4-methylpyrazole 100 μM
[7] = HLcy with NADPH, high concentration: dicumarol 50 μM, 4-methylpyrazole 500 μM
[8] = HLcy with NADPH, low concentration: dicumarol 10 μM, 4-methylpyrazole 100 μM
[9] = read-out: inhibitor Ki, CYP2C9, ref FDA Drug Development and Drug Interactions
[10] = read-out: inhibitor Ki, CYP2A6, ref FDA Drug Development and Drug Interactions

CCc1ccc(CCOc2ccc(CC3SC(=O)NC3=O)cc2)nc1 (stereo not drawn) [pioglitazone]
Ki (CYP2C8): 1700 nM

CCC1(c2ccccc2)C(=O)NC(=O)NC1=O [Phenobarbital, phenobarbital]
Percentage of inhibition of the formation of M3-1, H [1, 2]: N.I.
Percentage of inhibition of the formation of M3-2, H [1, 2]: N.I.
Percentage of inhibition of the formation of M3-1, L [1, 3]: N.I.
Percentage of inhibition of the formation of M3-2, L [1, 3]: N.I.

CC(O)Cc1cc(=O)oc2c3c(c4c(c12)OC(C)(C)C=C4)OC(CCl)CC3=O (stereo not drawn) [Metabolite M5-2]
F18 metabolite detected in HLM (human liver microsomes): +
F18 metabolite detected in RLM (rat liver microsomes): +
F18 metabolite detected in DLM (dog liver microsomes): +
F18 metabolite detected in MLM (monkey liver microsomes): +
F18 metabolite detected in HLcy with NADH (human liver cytosol): −
F18 metabolite detected in HLcy with NADPH (human liver cytosol): −

c1ccc(C2(N3CCCCC3)CCCCC2)cc1 [Phencyclidine]
Ki (CYP2B6; [4]): 10000 nM

CC(O)Cc1cc(=O)oc2c3c(c4c(c12)OC(C)(C)C=C4)OC(CCl)CC3=O (stereo not drawn) [Metabolite M5-3]
F18 metabolite detected in HLM (human liver microsomes): +
F18 metabolite detected in RLM (rat liver microsomes): +
F18 metabolite detected in DLM (dog liver microsomes): +
F18 metabolite detected in MLM (monkey liver microsomes): +
F18 metabolite detected in HLcy with NADH (human liver cytosol): −
F18 metabolite detected in HLcy with NADPH (human liver cytosol): −

N[C@@H]1C[C@H]1c1ccccc1 (racemic) [Tranylcypromine, tranylcypromine]
Ki (CYP2A6): 20 to 200 nM

O=c1oc2ccccc2c(O)c1Cc1c(O)c2ccccc2oc1=O [Dicumarol, dicumarol]
Percentage of inhibition of the formation of M3-1, H [1, 5]: 51.5%
Percentage of inhibition of the formation of M3-2, H [1, 5]: 49.6%
Percentage of inhibition of the formation of M3-1, L [1, 6]: 16.0%
Percentage of inhibition of the formation of M3-2, L [1, 6]: 6.7%
Percentage of inhibition of the formation of M3-1, H [1, 7]: 70.6%
Percentage of inhibition of the formation of M3-2, H [1, 7]: 82.2%
Percentage of inhibition of the formation of M3-1, L [1, 8]: 52.3%
Percentage of inhibition of the formation of M3-2, L [1, 8]: 67.7%

C[C@H](CCC(=O)O)[C@H]1CC[C@H]2[C@@H]3[C@H](O)C[C@@H]4C[C@H](O)CC[C@]4(C)[C@H]3CC[C@]12C [Chenodeoxycholic, chenodeoxycholic acid]
Percentage of inhibition of the formation of M3-1, H [1, 2]: 69.3%
Percentage of inhibition of the formation of M3-2, H [1, 2]: 81.2%
Percentage of inhibition of the formation of M3-1, L [1, 3]: 50.8%
Percentage of inhibition of the formation of M3-2, L [1, 3]: 62.3%

medroxyprogesterone
Percentage of inhibition of the formation of M3-1, H [1, 2]: 24.9%
Percentage of inhibition of the formation of M3-2, H [1, 2]: 38.8%
Percentage of inhibition of the formation of M3-1, L [1, 3]: 24.3%
Percentage of inhibition of the formation of M3-2, L [1, 3]: 35.8%

CC(NC(C)(C)C)C(=O)c1cccc(Cl)c1 (stereo not drawn) [bupropion]
Km (CYP2B6; read-out: substrate Km, CYP2B6, bupropion-hydroxylation, ref FDA Drug Development and Drug Interactions): 67 to 168 µM

OC(Cn1cncn1)(Cn1cncn1)c1ccc(F)cc1F [Fluconazole]
Ki (CYP2C9; [9]): 7000 nM

CC(=O)O[C@H]1C(=O)[C@@]2(C)[C@H]([C@H](OC(=O)c3ccccc3)[C@]3(O)C[C@H](OC(=O)[C@H](O)[C@@H](NC(=O)c4ccccc4)c4ccccc4)C(C)=C1C3(C)C)[C@]1(OC(C)=O)CO[C@@H]1C[C@@H]2O [Taxol]
Km (CYP2C8; Taxol 6-hydroxylation, N-DesethylAmodiaquine, read-out: substrate Km, CYP2C8): 5.4 to 19 µM

CNCCC(Oc1ccc(C(F)(F)F)cc1)c1ccccc1 (stereo not drawn) [fluoxetine]
Ki (CYP2C9; [9]): 18000 to 41000 nM

O=C(O)Cc1ccccc1Nc1c(Cl)cccc1Cl [Diclofenac]
Km (CYP2C9): 3.4 to 52 µM

Cc1cn[nH]c1 [4-methylpyrazole]
Percentage of inhibition of the formation of M3-1, H [1, 5]: N.I.
Percentage of inhibition of the formation of M3-2, H [1, 5]: N.I.
Percentage of inhibition of the formation of M3-1, L [1, 6]: N.I.
Percentage of inhibition of the formation of M3-2, L [1, 6]: N.I.
Percentage of inhibition of the formation of M3-1, H [1, 7]: N.I.
Percentage of inhibition of the formation of M3-2, H [1, 7]: N.I.
Percentage of inhibition of the formation of M3-1, L [1, 8]: N.I.
Percentage of inhibition of the formation of M3-2, L [1, 8]: N.I.

NCCc1c[nH]c2ccccc12 [tr ypta mine]
Ki (CYP2A6; [10]): 1700 nM

O=C(O)c1ccccc1Nc1cccc(C(F)(F)F)c1 [Flufenamic acid, flufenamic acid]
Percentage of inhibition of the formation of M3-1, H [1, 2]: 87.9%
Percentage of inhibition of the formation of M3-2, H [1, 2]: 94.0%
Percentage of inhibition of the formation of M3-1, L [1, 3]: 82.4%
Percentage of inhibition of the formation of M3-2, L [1, 3]: 88.5%

CCC(O)c1cc(=O)oc2c3c(c4c(c12)OC(C)(C)C=C4)OC(CCl)CC3=O (stereo not drawn) [Metabolite M5-4]
F18 metabolite detected in HLM (human liver microsomes): +
F18 metabolite detected in RLM (rat liver microsomes): +
F18 metabolite detected in DLM (dog liver microsomes): −
F18 metabolite detected in MLM (monkey liver microsomes): +
F18 metabolite detected in HLcy with NADH (human liver cytosol): −
F18 metabolite detected in HLcy with NADPH (human liver cytosol): −

CCC(O)c1cc(=O)oc2c3c(c4c(c12)OC(C)(C)C=C4)OC(CCl)CC3=O (stereo not drawn) [Metabolite M5-5]
F18 metabolite detected in HLM (human liver microsomes): +
F18 metabolite detected in RLM (rat liver microsomes): +
F18 metabolite detected in DLM (dog liver microsomes): −
F18 metabolite detected in MLM (monkey liver microsomes): +
F18 metabolite detected in HLcy with NADH (human liver cytosol): −
F18 metabolite detected in HLcy with NADPH (human liver cytosol): −

O=c1c(O)c(-c2ccc(O)c(O)c2)oc2cc(O)cc(O)c12 [Quercetin, quercetin]
Percentage of inhibition of the formation of M3-1, H [1, 2]: 80.4%
Percentage of inhibition of the formation of M3-2, H [1, 2]: 87.0%
Percentage of inhibition of the formation of M3-1, L [1, 3]: 41.5%
Percentage of inhibition of the formation of M3-2, L [1, 3]: 54.6%

CC=Cc1cc(=O)oc2c3c(c4c(c12)OC(C)(C)C=C4)OC(CCl)CC3=O (stereo not drawn) [Metabolite M2-9]
F18 metabolite detected in HLM (human liver microsomes): +
F18 metabolite detected in RLM (rat liver microsomes): +
F18 metabolite detected in DLM (dog liver microsomes): −
F18 metabolite detected in MLM (monkey liver microsomes): −
F18 metabolite detected in HLcy with NADH (human liver cytosol): −
F18 metabolite detected in HLcy with NADPH (human liver cytosol): −
IC50 (VSV-G/HIV-1 viruses): 110 nM

COC(=O)[C@H](c1ccccc1Cl)N1CCc2sccc2C1 [Clopidogrel]
Ki (CYP2B6): 500 nM

CC1=CC(=O)c2ccccc2C1=O [Menadione, menadione]
Percentage of inhibition of the formation of M3-1, H [1, 2]: 45.9%
Percentage of inhibition of the formation of M3-2, H [1, 2]: 58.4%
Percentage of inhibition of the formation of M3-1, L [1, 3]: 7.7%
Percentage of inhibition of the formation of M3-2, L [1, 3]: 20.1%

COc1cc(Cc2cnc(N)nc2N)cc(OC)c1OC [Trimethoprim]
Ki (CYP2C8): 32000 nM
